According to patent publication US9701959B2, “High throughput screen for biologically active polypeptides” (Invenra Inc., priority 2012, dated 2017):
Ends that are not written are not given here.

Each compound was assayed on NF-κB-Jurkat cells (GFP reporter construct for NF-kappa-B) (assay: Single bead bioactivity testing in 1536-well microtiter plate (GFP fluorescence)). Details: 1 and 2 beads per well, 4,800 cells per well, 18 hours at 37 C.
Assay type: cell-based
Procedure: Equipment: • Cell culture incubator (Fisher Scientific) • Microplate reader (Tecan Safire) • Black, clear bottom, 1536-well microtiter plate (Corning)
1) Dilute NF-κB-Jurkat cells to 4×10^6 cells/ml using the supplemented RPMI 1640 growth media.
2) Prepare the 1536 well for the following layout:
3) Add 7. μl of supplemented RMPI 1640 media to all wells labeled “M” in the plate layout above.
4) Create the following cell master mix:
5) Add 3 μl of the cell master mix to the wells labeled “A” and “B” so that when the test and control beads are added the final number of cells is 4,800 per well.
6) Dilute the TNF-bead and Control-beads in supplemented RPMI 1640 to 1-2 beads per 2 μl.
7) Add 2 μl of TNF-beads to the wells of the plate labeled “A” and add 2 μl of the control-beads to the wells of the plate labeled “B”.
8) Incubate the plate for 18 hours at 37 C and 5% CO2.
9) Measure the GFP fluorescence of each well using the Tecan Safire plate reader.
The experiment was performed to determine if a single bead could be used to screen for activity of a protein that induces a cell-reporter in a microtiter plate. 1536 well plates were used to decrease the volume in which the assay was performed. Control beads consisting of a scFv antibody fragment were generated using the same protocol as the tested TNF-beads. The control beads were used to establish a baseline signal for the assay. […]
In the case of “TNF-beads: His-tag, spacer, TEV cleavage site, spacer, and the soluble form of TNF-alpha, SEQ ID NO: 14, on beads”, the “GFP signal relative to baseline (control beads)” value is reported as “increased signal over the baseline”.

Each compound was assayed on E. coli MG1655 (assay: Minimal Inhibitory Concentration (MIC) in E. coli, Alamar Blue, hit validation). Details: MIC at 18 hrs in E. coli; overnight at 35° C., triplicate.
Assay type: cell-based
Procedure: Equipment: • Absorption and fluorescence plate reader—Tecan Safire • CO2 Incubator
Reagents: • Six chemically synthesized peptides—Biosynthesis Inc. • E. coli MG1655 (ATCC) • LB media (Sigma-Aldrich) • Alamar Blue assay kit (Life Tech)
3) Start an overnight culture of E. coli MG1655 in 5 mL of LB and grow at 37° C. with shaking at 200 rpm. 4) In the morning dilute overnight culture to OD600=0.00075 in 10 mL LB+1 mL Alamar Blue Stain. 5) Make seven (7), 1:2 serial dilutions of each peptide starting at […] in a final volume of 70 μL of PBS. 6) Add 20 μL of serial dilution of peptides in triplicate to a white small volume 96-well plate. Add 20 μl of PBS alone to the 8th well. 7) Add 120 μL of E. coli/Alamar blue dilution to each of the test wells. 8) Incubate overnight (18 hrs) at 35° C.
With “GIGAVLKVLGTGLPALISWIKFKRFP [Cont 3, reference compound]” the “Ave MIC” value was over 30 µM. GIGALIKVLTTGLPMLISWIKRKRNK [Hit 2] was tested, and the “Ave MIC” value was 14 µM. With “GIGAIAKVLSTGLPRLISWIKGKRIR [Cont 2, reference compound]” the “Ave MIC” value was 15 µM. CC[C@H](C)[C@H](NC(=O)CN)C(=O)NCC(=O)N[C@@H](C)C(=O)N[C@H](C(=O)N[C@@H](CC(C)C)C(=O)N[C@@H](CCCCN)C(=O)N[C@H](C(=O)N[C@@H](CC(C)C)C(=O)N[C@H](C(=O)N[C@H](C(=O)NCC(=O)N[C@@H](CC(C)C)C(=O)N1CCC[C@H]1C(=O)N[C@H](C(=O)N[C@@H](CC(C)C)C(=O)N[C@H](C(=O)N[C@@H](CO)C(=O)N[C@@H](Cc1c[nH]c2ccccc12)C(=O)N[C@H](C(=O)N[C@@H](CCCCN)C(=O)N[C@@H](CO)C(=O)N[C@@H](CCCCN)C(=O)N[C@@H](CCCNC(=N)N)C(=O)N[C@@H](CCC(N)=O)C(=O)N[C@@H](CCCCN)C(=O)O)[C@@H](C)CC)[C@@H](C)CC)[C@@H](C)O)[C@@H](C)O)[C@@H](C)O)C(C)C)C(C)C [Hit 1] was tested, and the “Ave MIC” value was 12 µM. In the case of GIGAWTKVLTTGLPGLISWIKRKRLR [Hit 3], the “Ave MIC” value is reported as 20 µM. “GIGATVKVLSTGLRFLISWIKRKRKY [Cont 1, reference compound]” was tested, and the “Ave MIC” value was over 30 µM.
